Patent US8729077B2, “Anti-viral compounds, compositions, and methods of use” (GlaxoSmithKline LLC, priority 2008, dated 2014)

How the values were obtained:
[1] = test system: HCV genotype 1a subgenomic replicon; experiment: HCV replicon assay, genotype 1a (luciferase); type: cell-based; conditions: Hepatitis C virus; genotype 1a replicon stable cell line; luciferase activity measured 48 hours later; 10 point dose response; read-out: 1A pEC50 (converted)
Experimental: (§1) Protocol for Testing and Data Analysis of Compounds in the HCV Replicon Assay
(§2) Compounds were assayed for activity against HCV using the genotype 1a and 1b subgenomic replicon model systems. Stable cell lines bearing the genotype 1a and 1b replicons were used for screening of compounds. Both replicons are bicistronic and contain the firefly luciferase gene. The ET cell line is stably transfected with RNA transcripts harboring a I389luc-ubi-neo/NS3-3′/ET replicon with firefly luciferase-ubiquitin-neomycin phosphotransferase fusion protein and EMCV-IRES driven NS3-5B polyprotein containing the cell culture adaptive mutations (E1202G; T1280I; K1846T) (Krieger at al, 2001 and unpublished). The genotype 1a replicon is a stable cell line licensed from Apath LLC, modified to contain the firefly luciferase gene. The cells were grown in DMEM, supplemented with 10% fetal calf serum, 2 mM Glutamine, Penicillin (100 IU/mL)/Streptomycin (100 μg/mL), 1× nonessential amino acids, and 250-500 μg/mL G418 (“Geneticin”). They were all available through Life Technologies (Bethesda, Md.). The cells were plated at 0.5×10^4 cells/well in 384 well plates containing compounds. The final concentration of compounds ranged between 0.03 pM to […] and the final DMSO concentration of 0.5-1%.
(§3) Luciferase activity was measured 48 hours later by adding a Steady glo (Promega, Madison, Wis.). Percent inhibition of replication data was plotted relative to no compound control. Under the same condition, cytotoxicity of the compounds was determined using cell titer glo (Promega, Madison, Wis.). EC50s were determined from a 10 point dose response curve using 3-4-fold serial dilution for each compound, which spans a concentration range >1000 fold. BioAssay determines the level of inhibition for each compound by normalizing cross-talk corrected plate values against the negative (low or background, cells with no compound present) and positive (high DMSO, no cells) controls to determine Percent Inhibition:
(§4) These normalized values are exported to EC50 where they are plotted against the molar compound concentrations using the standard four parameter logistic equation:
(§5) A=minimum y D=slope factor
(§6) B=maximum y x=log10 compound concentration [M]

[2] = test system: HCV genotype 1b subgenomic replicon; experiment: HCV replicon assay, genotype 1b (luciferase, ET cell line); type: cell-based; conditions: Hepatitis C virus; genotype 1b replicon (ET cell line); luciferase activity measured 48 hours later; 10 point dose response; read-out: 1B pEC50 (converted)
Experimental: as §1, §2, §3, §4, §5, §6

COC(=O)N[C@H](C(=O)N1CC(C2CC2)=C[C@H]1c1ncc(-c2ccc(-c3ccc(-c4cnc([C@@H]5CCCN5C(=O)[C@@H](NC(=O)OC)C(C)C)[nH]4)cc3)cc2)[nH]1)C(C)C [example 11, methyl[(1S)-1-({(2S)-2-[4-(4′-{2-[(2S)-4-cyclopropyl-1-((2S)-3-methyl-2-{[(methyloxy)carbonyl]amino}butanoyl)-2,5-dihydro-1H-pyrrol-2-yl]-1H-imidazol-4-yl}-4-biphenylyl)-1H-imidazol-2-yl]-1-pyrrolidinyl}carbonyl)-2-methylpropyl]carbamate] was tested, and the EC50 [1] was 0.0126 nM and the EC50 [2] was 0.00468 nM.

In the case of CC=C1C[C@@H](c2ncc(-c3ccc(-c4ccc(-c5cnc([C@@H]6CCCN6C(=O)C(NC(=O)OC)C(C)C)[nH]5)cc4)cc3)[nH]2)N(C(=O)C(NC(=O)OC)C(C)C)C1 (stereo partly drawn) [example 12, (1-{(S)-2-[5-(4′-{2-[(S)-4-Ethylidene-1-(2-methoxycarbonylamino-3-methyl-butyryl)-pyrrolidin-2-yl]-3H-imidazol-4-yl}-biphenyl-4-yl)-1H-imidazol-2-yl]-pyrrolidine-1-carbonyl}-2-methyl-propyl)-carbamic acid methyl ester], the EC50 [1] is reported as 0.0158 nM and the EC50 [2] is reported as 0.00437 nM.

With CN(C)[C@@H](C(=O)N1CCC[C@H]1c1nc(-c2ccc(-c3ccc(-c4c[nH]c([C@@H]5COC6(CCOCC6)N5C(=O)OCc5ccccc5)n4)cc3)cc2)c[nH]1)c1ccccc1 [example 1] the EC50 [1] was 1.58 nM and the EC50 [2] was 0.00347 nM.

Work on COC(=O)N[C@H](C(=O)N1CCC[C@H]1c1ncc(-c2ccc(-c3ccc(-c4cnc([C@@H]5C=C(C)CN5C(=O)[C@H](NC(=O)OC)C(C)C)[nH]4)cc3)cc2)[nH]1)C(C)C [example 9, (1-{(S)-2-[5-(4′-{2-[(S)-1-((R)-2-Methoxycarbonylamino-3-methyl-butyryl)-4-methyl-2,5-dihydro-1H-pyrrol-2-yl]-3H-imidazol-4-yl}-biphenyl-4-yl)-1H-imidazol-2-yl]-pyrrolidine-1-carbonyl}-2-methyl-propyl)-carbamic acid methyl ester] yielded an EC50 [1] of 0.0158 nM and an EC50 [2] of 0.00776 nM.

In the case of CCC1=C[C@@H](c2ncc(-c3ccc(-c4ccc(-c5cnc([C@@H]6CCCN6C(=O)C(NC(=O)OC)C(C)C)[nH]5)cc4)cc3)[nH]2)N(C(=O)[C@H](NC(=O)OC)C(C)C)C1 (stereo partly drawn) [example 10, (1-{(S)-2-[5-(4′-{2-[(S)-4-Ethyl-1-((R)-2-methoxycarbonylamino-3-methyl-butyryl)-2,5-dihydro-1H-pyrrol-2-yl]-3H-imidazol-4-yl}-biphenyl-4-yl)-1H-imidazol-2-yl]-pyrrolidine-1-carbonyl]-2-methyl-propyl)-carbamic acid methyl ester], the EC50 [1] is reported as 0.0316 nM and the EC50 [2] is reported as 0.00603 nM.
